Assays:
Format in all cases: in vivo, Heterodera glycines
[1] = test system: SCN; assay: Field trials (43): yield of treated PI88788-derived soybean lines under moderate to high nematode pressure; conditions: seed treatment 0.50 mg AI/seed with Fungicide + Insecticide (Base 2); adjusted to 13% moisture
Text: Eleven different untreated and treated lines were planted in a total of 43 separate field trials with a single variety per location. The eleven lines were selected based on their resistance reactions to race 3 SCN. The eleven lines were developed from PI88788 source germplasm and display either moderate resistance or resistance to race 3 SCN. 3-Phenyl-5-(thiophen-2-yl)-1,2,4-oxadiazole was combined with commercial fungicides and insecticides in a tank slurry mix with colorant, polymer, and water at the recommended rates and allowed to mix thoroughly. Using a Gustafson continuous batch seed coater the seed batch was loaded, the treatment slurry was injected and the mixture was allowed to tumble for 35-40 seconds before being ejected into a paper storage bag. […] Sub-samples (˜ 1 pint of soil) were taken from each composite sample and placed in a plastic bag, with appropriate handling to ensure viability of nematodes, and sent to a lab for nematode quantification. […] Quantitative in-season nematode sampling using root and soil samples was conducted eight weeks after planting for trials. […] Samples were sent to a lab for nematode quantification. […] The data were calculated to represent bushels per acre by taking the grain weight over the square footage of each plot and adjusting to 13% moisture.

[2] = test system: race 2 SCN; assay: Greenhouse study: SCN cysts on roots of soybean grown from treated seed, race 2 SCN challenge; conditions: seed treatment, 2000-3000 SCN eggs, cysts counted after 28-30 days, mean of 6-8 replications, FIG. 3
Method: Various soybean lines were treated with the compound 3-phenyl-5-(thiophen-2-yl)-1,2,4-oxadiazole following standard industry protocols. The structure of 3-phenyl-5-(thiophen-2-yl)-1,2,4-oxadiazole is:
(§1) Untreated seed or seed treated only with a colorant were used as standard controls. Single soybean seed were planted in 3″×3″ pots filled with field soil mixed with sand and steam sterilized. Ten days after germination seedlings were inoculated with 2000-3000 SCN eggs isolated from cultures maintained on the appropriate soybean germplasm to maintain designated race. After inoculation, soil temperatures were maintained at 28° C. with 16-hour day-length for 28-30 days. On the last day of the incubation period, individual plants were uprooted. Cysts from each plant were collected by blasting the roots with pressurized water and washing the soil while trapping the released cysts on sieves. The collected cysts from individual plants were transferred to a counting dish. The total number of cysts from individual plants was counted under a dissecting microscope. Data is reported as the number of cysts collected from an individual pot and represent the mean of 6-8 replications.
All plants were treated with ACCELERON® (Monsanto Company, St. Louis, Mo., USA) to reduce fungal disease.

[3] = test system: race 1 soybean cyst nematodes; assay: Field tests: yield of treated and untreated soybean lines in race 1 SCN fields; conditions: for yield, treated vs untreated: race 1 SCN
Method: Prior to planting, seeds were treated with chemistry according to standard industry protocols. Six different untreated and treated lines were planted in eight plots. The six lines were selected based on resistance reaction to race 1 and race 3 SCN. […] The levels of resistance were determined essentially as described by Schmitt, D. P. and Shannon, G., Crop Sci., 32:275-277 (1992), according to Table 4. Soil cores were collected at emergence near the root zone of the plant. Multiple soil samples were taken, combined, and crushed into small evenly-sized particles. A sample aliquot was combined with water allowed to sit, then stirred. The sample was then poured into a funnel and processed in a soil elutriator. The sample was counted, with a final number being given as eggs per 100 cc of soil. Based on the number of eggs per 100 cc of soil, the field was classified as low to high pressure, where about 0 to about 180 eggs per 100 cc of soil was considered to be low pressure, about 180 eggs to about 1100 eggs per 100 cc of soil was considered to be medium pressure, and greater than about 1100 eggs per 100 cc of soil was considered to be high pressure. Lines were planted in four medium and four high pressure fields containing race 1 soybean cyst nematodes. The medium pressure fields contained 536 eggs per 100 cc of soil while the high pressure fields contained 1645 eggs per 100 cc of soil. Yield was determined at harvest. The lines derived from Peking germplasm provided protection against race 1 SCN while the lines derived from PI88788 germplasm provided protection against race 3 SCN.

[4] = test system: SCN; assay: Greenhouse trials: susceptible soybean line challenged with SCN with and without the compound (all plants with Acceleron); conditions: presence vs absence of the compound, all plants treated with ACCELERON
Method: as §1, with “3''×3''” for “3″×3″”, “replications. […] All plants were treated with […]® (Monsanto Company, St. Louis, Mo., USA) to reduce fungal disease.” for “replications.”

## c1ccc(-c2noc(-c3cccs3)n2)cc1 [3-phenyl-5-(thiophen-2-yl)-1,2,4-oxadiazole]
[1]
  Average Yield: 55.7 BU/A
[2]
  resistance to race 2 SCN (number of SCN cysts on soybean roots): enhances resistance to race 2 SCN
[3]; high pressure field, 1645 eggs per 100 cc soil, Peking-moderately resistant (Line 2) and PI88788-moderately resistant (Line 5), FIG. 6
  yield, treated vs untreated: unexpected statistically higher yield
[3]; high pressure field, 1645 eggs per 100 cc soil, Peking-resistant (Line 3), PI88788-sensitive (Line 4), PI88788-resistant (Line 6)
  yield, treated vs untreated: no statistical difference
[3]; high pressure field, 1645 eggs per 100 cc soil, Peking-sensitive line (Line 1)
  yield, treated vs untreated: statistically higher yield than untreated
[3]; high pressure field, average of the two moderately resistant lines
  yield advantage compared to untreated: 5.8 bushel per acre
[3]; high race 1 SCN pressure, about 1645 SCN eggs/100 cc soil
  yield in field tests (legend of FIG. 6): increase in yield
[3]; low race 1 SCN pressure, about 536 SCN eggs/100 cc soil
  yield in field tests (legend of FIG. 5): increase in yield
[3]; medium pressure field, 536 eggs per 100 cc soil, Peking or PI88788 sensitive, moderately resistant and resistant lines, FIG. 5
  yield, treated vs untreated: No statistical difference in yield
[4]
  SCN cyst counts: lower SCN cyst counts

Source: US10982293B2, “Methods for improving plant resistance to soybean cyst nematode and compositions thereof” (Monsanto Technology LLC, priority 2014, dated 2021)
